Results taken from PMC5336358, “Origin and evolution of transporter substrate specificity within the NPF family” (eLife, 2017).

Key:
BrGTR3 (BrH02396) = target: T1, BrGTR3 (BrH02396) (Brassica rapa, UniProt A0A397YP93); experiment: oocyte uptake, LC-MS; TEVC currents; assay type: cell-based; conditions: […] substrate, pH […] min
T1 construct: gene BRARA_H02396; full-length untagged, codon-optimized cRNA in Xenopus laevis oocytes; primer encodes N-term MEVEKTQE
T1 sequence (A0A397YP93 1-591): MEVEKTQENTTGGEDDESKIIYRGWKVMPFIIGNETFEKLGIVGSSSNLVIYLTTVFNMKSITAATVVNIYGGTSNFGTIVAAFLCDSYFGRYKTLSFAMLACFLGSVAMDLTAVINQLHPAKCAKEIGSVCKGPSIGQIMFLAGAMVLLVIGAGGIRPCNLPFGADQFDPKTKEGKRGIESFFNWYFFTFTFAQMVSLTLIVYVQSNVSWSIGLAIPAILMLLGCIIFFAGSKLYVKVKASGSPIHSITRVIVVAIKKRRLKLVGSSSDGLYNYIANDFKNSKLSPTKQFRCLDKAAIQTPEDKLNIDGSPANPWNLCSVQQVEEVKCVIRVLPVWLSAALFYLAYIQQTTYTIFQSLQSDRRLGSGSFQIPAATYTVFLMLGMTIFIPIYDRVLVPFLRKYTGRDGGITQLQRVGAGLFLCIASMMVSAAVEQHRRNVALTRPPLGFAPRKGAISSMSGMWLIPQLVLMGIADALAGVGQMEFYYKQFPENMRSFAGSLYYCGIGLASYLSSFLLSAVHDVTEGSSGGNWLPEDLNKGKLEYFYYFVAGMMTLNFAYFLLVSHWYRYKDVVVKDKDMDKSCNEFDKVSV

BrGTR1 (BrF01711) = target: T2, BrGTR1 (BrF01711) (Brassica rapa, UniProt A0A8D9DAH7); experiment: oocyte uptake, LC-MS; TEVC currents; assay type: cell-based; conditions: […] substrate, pH […] min
T2 construct: gene BRAPAZ1V2_A06P20680.2; full-length untagged, codon-optimized cRNA in Xenopus laevis oocytes; primer encodes N-term MERKPFE
T2 sequence (A0A8D9DAH7 1-615): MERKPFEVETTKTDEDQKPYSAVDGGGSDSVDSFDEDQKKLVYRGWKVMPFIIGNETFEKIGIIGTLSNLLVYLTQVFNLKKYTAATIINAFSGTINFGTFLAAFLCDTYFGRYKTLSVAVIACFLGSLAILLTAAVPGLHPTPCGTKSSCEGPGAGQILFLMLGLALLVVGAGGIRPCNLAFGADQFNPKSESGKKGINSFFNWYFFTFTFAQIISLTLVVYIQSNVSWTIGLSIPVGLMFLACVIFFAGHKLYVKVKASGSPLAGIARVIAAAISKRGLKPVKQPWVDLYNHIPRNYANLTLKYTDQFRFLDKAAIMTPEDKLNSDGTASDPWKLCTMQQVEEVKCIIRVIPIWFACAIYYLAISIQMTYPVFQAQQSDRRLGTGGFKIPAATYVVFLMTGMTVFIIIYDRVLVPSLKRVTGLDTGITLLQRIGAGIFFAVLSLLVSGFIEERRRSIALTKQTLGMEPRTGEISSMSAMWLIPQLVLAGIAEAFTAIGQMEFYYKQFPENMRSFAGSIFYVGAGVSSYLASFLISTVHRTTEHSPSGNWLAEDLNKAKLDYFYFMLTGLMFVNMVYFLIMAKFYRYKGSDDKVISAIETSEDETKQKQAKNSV

GTR3 (NPF2.9, At1g18880) = target: T3, GTR3 (NPF2.9, At1g18880) (Arabidopsis thaliana, UniProt Q9M9V7); experiment: TEVC currents in Xenopus oocytes, Michaelis-Menten fit; assay type: cell-based; conditions: pH 5, -60 mV membrane potential
T3 construct: full-length untagged, cRNA in Xenopus laevis oocytes
T3 sequence (Q9M9V7 1-587): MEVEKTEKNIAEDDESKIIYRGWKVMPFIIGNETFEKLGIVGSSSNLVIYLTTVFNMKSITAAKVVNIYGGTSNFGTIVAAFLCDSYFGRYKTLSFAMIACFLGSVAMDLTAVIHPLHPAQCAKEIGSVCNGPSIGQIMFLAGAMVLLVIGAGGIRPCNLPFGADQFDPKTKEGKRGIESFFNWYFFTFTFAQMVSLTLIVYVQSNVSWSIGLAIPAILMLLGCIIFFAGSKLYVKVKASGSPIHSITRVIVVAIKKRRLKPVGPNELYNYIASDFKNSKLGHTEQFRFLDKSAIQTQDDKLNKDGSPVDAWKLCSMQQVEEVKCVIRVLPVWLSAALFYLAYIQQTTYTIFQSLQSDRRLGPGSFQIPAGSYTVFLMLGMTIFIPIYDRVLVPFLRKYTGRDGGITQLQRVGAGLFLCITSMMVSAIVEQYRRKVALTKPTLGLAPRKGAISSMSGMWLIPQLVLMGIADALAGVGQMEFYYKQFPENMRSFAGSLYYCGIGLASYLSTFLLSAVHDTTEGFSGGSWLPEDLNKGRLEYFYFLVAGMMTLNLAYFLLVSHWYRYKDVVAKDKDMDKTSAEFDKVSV

GTR1 (AtGTR1, NPF2.10) = target: T4, GTR1 (AtGTR1, NPF2.10) (Arabidopsis thaliana, UniProt Q944G5); experiment: as above; assay type: cell-based; conditions: pH 5, -60 mV membrane potential
T4 construct: full-length untagged, cRNA in Xenopus laevis oocytes
T4 sequence (Q944G5 1-636): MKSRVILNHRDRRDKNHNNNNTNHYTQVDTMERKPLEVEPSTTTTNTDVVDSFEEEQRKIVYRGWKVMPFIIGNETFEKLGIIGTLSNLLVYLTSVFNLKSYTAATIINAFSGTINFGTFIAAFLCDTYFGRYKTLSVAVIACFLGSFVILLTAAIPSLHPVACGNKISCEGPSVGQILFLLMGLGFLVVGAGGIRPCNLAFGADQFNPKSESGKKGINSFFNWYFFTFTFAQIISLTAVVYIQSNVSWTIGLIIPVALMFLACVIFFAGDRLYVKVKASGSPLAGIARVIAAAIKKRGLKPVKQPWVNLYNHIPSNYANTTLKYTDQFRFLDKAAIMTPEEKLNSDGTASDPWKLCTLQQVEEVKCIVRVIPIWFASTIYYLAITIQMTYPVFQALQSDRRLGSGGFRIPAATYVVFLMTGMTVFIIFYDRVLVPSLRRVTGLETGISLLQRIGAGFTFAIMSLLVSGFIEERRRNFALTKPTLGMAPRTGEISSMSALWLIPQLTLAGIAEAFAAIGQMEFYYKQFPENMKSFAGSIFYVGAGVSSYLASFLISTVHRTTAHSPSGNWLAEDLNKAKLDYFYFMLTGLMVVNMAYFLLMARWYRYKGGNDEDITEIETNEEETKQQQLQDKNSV

GTR2 (AtGTR2, NPF2.11) = target: T5, GTR2 (AtGTR2, NPF2.11) (Arabidopsis thaliana, UniProt Q9LV10); experiment: as above; assay type: cell-based; conditions: pH 5, -60 mV membrane potential
T5 construct: full-length untagged, cRNA in Xenopus laevis oocytes
T5 sequence (Q9LV10 1-616): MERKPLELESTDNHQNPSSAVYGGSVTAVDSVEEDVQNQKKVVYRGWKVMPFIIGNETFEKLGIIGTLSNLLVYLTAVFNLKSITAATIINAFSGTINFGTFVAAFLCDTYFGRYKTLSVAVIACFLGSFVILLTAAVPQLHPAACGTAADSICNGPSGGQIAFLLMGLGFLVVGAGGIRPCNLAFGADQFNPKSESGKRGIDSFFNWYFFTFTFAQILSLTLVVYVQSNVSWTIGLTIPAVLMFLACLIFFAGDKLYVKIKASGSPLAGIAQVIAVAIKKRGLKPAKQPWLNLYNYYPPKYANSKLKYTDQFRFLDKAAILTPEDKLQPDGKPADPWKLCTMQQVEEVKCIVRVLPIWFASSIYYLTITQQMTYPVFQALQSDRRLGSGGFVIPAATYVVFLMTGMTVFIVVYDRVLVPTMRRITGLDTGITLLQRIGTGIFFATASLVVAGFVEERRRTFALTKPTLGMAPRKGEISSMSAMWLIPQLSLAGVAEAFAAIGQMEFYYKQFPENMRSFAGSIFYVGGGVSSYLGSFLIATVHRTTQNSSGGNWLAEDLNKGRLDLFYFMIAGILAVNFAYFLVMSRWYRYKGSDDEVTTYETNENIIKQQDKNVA

Me15G176100 = target: T6, Me15G176100 (Manihot esculenta, UniProt A0A2C9UH66); experiment: oocyte uptake, LC-MS; assay type: cell-based; conditions: 0.2 mM substrate, pH 5, 60 min
T6 construct: gene MANES_15G175484v8; full-length untagged, codon-optimized cRNA in Xenopus laevis oocytes; primer encodes N-term MEDKEEKS

Me14G074000 = target: T7, Me14G074000 (Manihot esculenta, UniProt A0A2C9ULI5); experiment: oocyte uptake, LC-MS; assay type: cell-based; conditions: 0.2 mM substrate, pH 5, 60 min
T7 construct: gene MANES_14G074000v8; full-length untagged, codon-optimized cRNA in Xenopus laevis oocytes; primer encodes N-term MATGETI

CpGTRL2 (Cp17.190) = test system: T8, CpGTRL2 (Cp17.190); experiment: TEVC currents in Xenopus oocytes, Michaelis-Menten fit; assay type: cell-based, Carica papaya; conditions: pH 5, -60 mV membrane potential
T8 construct: full-length untagged, codon-optimized cRNA in Xenopus laevis oocytes; primer encodes N-term MEMDGKE

[1] = substrate: CC(C)(C#N)O[C@@H]1O[C@H](CO)[C@@H](O)[C@H](O)[C@H]1O; experiment: as above; assay type: cell-based, Manihot esculenta; conditions: pH 5, -60 mV membrane potential
[2] = substrate: N#C[C@H](O[C@@H]1O[C@H](CO)[C@@H](O)[C@H](O)[C@H]1O)c1ccccc1; experiment: as above; assay type: cell-based, Manihot esculenta; conditions: pH 5, -60 mV membrane potential

T7 sequence (A0A2C9ULI5 entry or part of it): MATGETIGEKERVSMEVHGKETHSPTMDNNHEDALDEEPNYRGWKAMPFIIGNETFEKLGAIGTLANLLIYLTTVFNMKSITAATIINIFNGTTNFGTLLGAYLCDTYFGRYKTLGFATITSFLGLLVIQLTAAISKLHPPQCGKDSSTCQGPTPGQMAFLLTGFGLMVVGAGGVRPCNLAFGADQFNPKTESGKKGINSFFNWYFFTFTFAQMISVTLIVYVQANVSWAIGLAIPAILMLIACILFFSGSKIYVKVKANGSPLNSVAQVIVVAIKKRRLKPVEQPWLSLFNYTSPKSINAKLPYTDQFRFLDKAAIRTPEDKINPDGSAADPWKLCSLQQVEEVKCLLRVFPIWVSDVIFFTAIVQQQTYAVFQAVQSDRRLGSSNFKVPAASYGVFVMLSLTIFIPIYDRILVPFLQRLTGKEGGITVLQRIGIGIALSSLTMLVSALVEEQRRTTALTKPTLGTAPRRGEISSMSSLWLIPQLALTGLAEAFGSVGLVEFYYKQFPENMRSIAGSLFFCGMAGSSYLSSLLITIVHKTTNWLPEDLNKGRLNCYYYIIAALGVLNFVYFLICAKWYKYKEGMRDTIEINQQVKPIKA
T6 sequence (A0A2C9UH66 entry or part of it): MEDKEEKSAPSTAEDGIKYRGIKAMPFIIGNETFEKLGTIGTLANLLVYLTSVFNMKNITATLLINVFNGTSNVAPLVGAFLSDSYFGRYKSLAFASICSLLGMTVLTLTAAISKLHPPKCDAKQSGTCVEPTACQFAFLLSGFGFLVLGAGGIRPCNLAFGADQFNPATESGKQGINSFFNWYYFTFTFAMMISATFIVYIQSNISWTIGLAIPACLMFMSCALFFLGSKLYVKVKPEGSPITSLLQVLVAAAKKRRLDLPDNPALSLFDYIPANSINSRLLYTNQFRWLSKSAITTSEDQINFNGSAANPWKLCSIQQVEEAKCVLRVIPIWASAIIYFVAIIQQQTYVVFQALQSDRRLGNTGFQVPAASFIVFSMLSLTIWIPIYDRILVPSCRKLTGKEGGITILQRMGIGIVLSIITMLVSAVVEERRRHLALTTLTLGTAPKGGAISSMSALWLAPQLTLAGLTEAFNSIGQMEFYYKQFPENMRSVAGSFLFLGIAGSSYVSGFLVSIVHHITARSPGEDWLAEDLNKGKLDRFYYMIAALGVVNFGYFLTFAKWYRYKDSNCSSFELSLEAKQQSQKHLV

In the case of `O=S(=O)(O)O/N=C(/Cc1c[nH]c2ccccc12)S[C@@H]1O[C@H](CO)[C@@H](O)[C@H](O)[C@H]1O` [I3M, indol-3-yl-methyl glucosinolate], the “oocyte uptake, LC-MS; TEVC currents” value (BrGTR3 (BrH02396)) is reported as “strong preference for I3M by the tested BrGTR3 ortholog (BrH02396)”, the “oocyte uptake, LC-MS; TEVC currents” value (BrGTR1 (BrF01711)) is reported as “BrGTR1 ortholog (BrF01711) transported 4MTB and I3M with similar efficiency” and the Km (GTR3 (NPF2.9, At1g18880)) is reported as less than 25 µM. The Km (GTR1 (AtGTR1, NPF2.10)) was less than 25 µM and the Km (GTR2 (AtGTR2, NPF2.11)) was less than 25 µM.

`N#C[C@H](O[C@@H]1O[C@H](CO)[C@@H](O)[C@H](O)[C@H]1O)c1ccccc1` [prunasin] was tested, and the “oocyte uptake, LC-MS” value (Me15G176100) was “Uptake of prunasin was detected in oocytes expressing Me15G176100” and the “oocyte uptake, LC-MS” value (Me14G074000) was “Me14G074000 from cassava accumulated prunasin, but not linamarin, to levels equivalent to media”.

For `CSCCCC/C(=N/OS(=O)(=O)O)S[C@@H]1O[C@H](CO)[C@@H](O)[C@H](O)[C@H]1O` [4MTB, 4-methylthiobutyl glucosinolate], the “oocyte uptake, LC-MS; TEVC currents” value (BrGTR1 (BrF01711)) was “BrGTR1 ortholog (BrF01711) transported 4MTB and I3M with similar efficiency”, the Km (CpGTRL2 (Cp17.190)) was 85 ± 12 µM and the “oocyte uptake, LC-MS” value (Me14G074000) was “Me14G074000 from cassava over-accumulated both 4MTB and I3M relative to external media”.

B1: MeCGTR1 (Me15G180400) (Manihot esculenta) (protein)
chain: MENGNDHAQDQQKSIEKDEEPVINYRGIKAMPFIIGNETFEKLGTVGSSTNLVVYLNTVFNLKSVTATTLVNIFNGTTNLAPLLGAFLCDTYFGRYKTLGFASVASFLGMSALALTAAVPTLHPPKCVGKESSQCVGPSIWQLAFLLCGFGLIAIGAGGIRPCNLAFGAEQFNPNTESGKRGMSSFFNWYYFTYTFAVMVSVTGIVYVQSDVSWAIGLAIPAFLMFLSCAVFFIGTKIYVIVKPEGSPITSVVQVLVVSVKKRGLKLPQNPAVSLFNYVPAKSINSRLSHTEQFSFLDKAAIVTEKDEINLDGSAANPWRLCSIQQVEEVKCMVRIIPIWASAIIYHVPLIQQQTYAVLQALQLDRRLGTGSFEIPAATFIIFTMLALTIWIPIYDRILVPFLQRLTGKEGGFTLLQRMGIGILLSVLCMFVSGLVESHRRDIALSKPTLGISPKGGAVSSMTWLWLVPQLALAGLSEGFNYVSQIEFYYKQFPENMRSIAGSSFFAGLALANFLSGLLVSTIHKITSATKSGDWLSEDLNKGKLDHFYYVIGVLGTVNMAYFLLCAKWYRYKVREDDGSVEMSNKSSVKHHV
notes: full-length untagged, codon-optimized cRNA in Xenopus laevis oocytes (pNB1u); primer encodes N-term MENGNDH
B1 gave a Km [1] of 262 ± 15 µM and a Km [2] of 80 ± 7 µM.
